According to article PMC5352362, “Molecular and functional evaluation of a novel HIF inhibitor, benzopyranyl 1,2,3-triazole compound” (Oncotarget, 2016):
Where two headings read alike, the source gives them in different places.

Tests used:
HIF-1α = details: cited from earlier work
[1] = tested on: Lewis lung carcinoma (LLC) cells; experiment: Lewis lung carcinoma allograft in C57BL/6J mice with immunohistochemistry; format: in vivo, mouse
Experimental: HIF-1α is synthesized by growth factor signaling pathways, such as those of EGFR [30] [31]. Inhibition of HIF-1α in its pathways of synthesis, as well as in its pathway of degradation, would seem to make for a more efficient anti-cancer/anti-angiogenesis treatment. To confirm this, we performed a tumor allogaft experiment using Lewis lung carcinoma (LLC) cells. 1 × 10^6 LLC cells were inoculated into the mouse flank subcutaneously (s.c.), and treatment with Compound 12 (5 mg/kg) and/or gefitinib (an EGFR inhibitor, 50 mg/kg), via intraperitoneal (i.p.) administration, was performed every other day for 20 days. At Day 20, mice were sacrificed and tumor tissue was fixed in formaldehyde for 1 h for further histological examination. […] To confirm the effect of Compound 12 on angiogenesis, we analyzed angiogenesis using the Matrigel plug assay. […] To confirm the effects of Compound 12 on anti-angiogenesis, we sectioned the tumor tissues to determine microvessel density (MSD) via immunohistochemistry (using CD31 antibody).
Figure 6 Compound 12 suppressed allogaft tumor growth and enhanced the effects of a chemotherapeutic agent (A, B) Lewis lung carcinoma cells were inoculated into flanks of C57BL/6J mice (Day 0). From two days after inoculation, mice were treated intraperitoneally with Compound 12 (5 mg/kg body weight) and gefitinib (50 mg/kg body weight), three times a week, for 18 days and then sacrificed. Tumor size (A) and tumor weight (B) were measured three times a week and on the final day, respectively. Tumor masses were photographed and shown in box below the graph. **P < 0.05 versus control group. (C) Matrigel was treated with DMSO, Compound 12 (100 nM), and gefitinib (5 μM) and inoculated in the flank of C57BL/6J mice. After 10 days matrigel plug was removed and photographed. The content of hemoglobin was quantified and graphed. (D) Tumor tissue sections (10 μm) indicated were stained with H&E and immunostained with anti-CD31 antibody to detect microvessel density; CD31+ cell percentages were then calculated and graphed. Scale bar, 100 μm. **P < 0.05 versus control group. (E) Images and quantitative comparisons (graph) for hypoxic regions, immunostained CA9 protein, and microvessels (CD31+ cells) in tumor center regions are shown. Scale bar, 100 μm. **P < 0.05 versus control group. (F) Images and quantitative comparisons (graph) for Ki67+ proliferating cells in tumor center regions are shown. Scale bar, 100 μm. **P < 0.05 versus control group.
We determined levels of hypoxia in tissues via: 1) antibodies against the hypoxic cell marker pimonidazole (PIMO), and 2) checking expression levels of carbonic anhydrase (CA9), a downstream target of HIF-1.
LLC cells (1 × 10^6) were injected subcutaneously into the flanks of 6-week-old C57BL/6J mice (Day 0)(SLC, Japan). Tumor size and body weight were measured 3 time a week. Tumor tissues were removed at day 20 after completion of injection of vehicle or drugs and fixed with 4% paraformaldehyde (PFA). After tissue processing for frozen sample preparation protocol, samples were embedded in OCT compound and frozen quickly by liquid nitrogen. Frozen blocks were cut into 10 μm sections and stained with hematoxylin and eosin (H&E) for light microscopy. Additional tissue sections for immunohistochemistry were blocked with 5% goat serum in PBST (0.03% Triton X-100 in PBS) and then incubated for 3 h at RT with following primary antibodies, anti-CD31 and anti-Ki67. To detect the hypoxic area in the tumors, Hypoxyprobe-1™ (60 mg/kg, Natural Pharmacia International) was iv injected 90 min before tissue fixation. Tumors were harvested, sectioned and stained with FITC-conjugated anti-Hypoxyprobe antibody.

[2] = tested on: angiogenesis (hemoglobin content of Matrigel plug); experiment: Matrigel plug assay in C57BL/6J mice; format: in vivo, mouse; details: Compound 12 100 nM, gefitinib 5 μM in Matrigel, 10 days
Experimental: HIF-1α is synthesized by growth factor signaling pathways, such as those of EGFR [30] [31]. Inhibition of HIF-1α in its pathways of synthesis, as well as in its pathway of degradation, would seem to make for a more efficient anti-cancer/anti-angiogenesis treatment. To confirm this, we performed a tumor allogaft experiment using Lewis lung carcinoma (LLC) cells. 1 × 10^6 LLC cells were inoculated into the mouse flank subcutaneously (s.c.), and treatment with Compound 12 (5 mg/kg) and/or gefitinib (an EGFR inhibitor, 50 mg/kg), via intraperitoneal (i.p.) administration, was performed every other day for 20 days. […] To confirm the effect of Compound 12 on angiogenesis, we analyzed angiogenesis using the Matrigel plug assay. […]
Figure 6 Compound 12 suppressed allogaft tumor growth and enhanced the effects of a chemotherapeutic agent (A, B) Lewis lung carcinoma cells were inoculated into flanks of C57BL/6J mice (Day 0). […] Tumor size (A) and tumor weight (B) were measured three times a week and on the final day, respectively. […] The content of hemoglobin was quantified and graphed. (D) Tumor tissue sections (10 μm) indicated were stained with H&E and immunostained with anti-CD31 antibody to detect microvessel density; CD31+ cell percentages were then calculated and graphed. […] (F) Images and quantitative comparisons (graph) for Ki67+ proliferating cells in tumor center regions are shown. […]

[3] = tested on: chick chorioallantoic membrane angiogenesis; experiment: Chick embryo chorioallantoic membrane (CAM) assay; format: in vivo; details: applied to ED 4.5 CAM for two days; Compound 12 0.1 μg and 1 μg
Experimental: Figure 5 Compound 12 suppressed HIF-1α target gene expression, and confirmation of in vitro results via determination of effects on angiogenesis in vivo (A) A549 cells were treated with Compound 12 (at concentrations of 0 nM, 1 nM, 10 nM, and 100 nM) for 16 h. The mRNA levels of HIF-1α target genes were determined by semiquantitative RT-PCR. β-actin was used as an internal control. D. DMSO vehicle control. N, normoxia; H, hypoxia. (B) A549 cells were treated with serum-reduced culture media containing Compound 12 (at concentrations of 0 nM, 10 nM, and 100 nM) for 16 h. Media supernatant was collected, and secreted VEGF was determined by ELISA after removal of cellular debris. N, normoxia; H, hypoxia. **P < 0.01 versus hypoxia (H) DMSO (D)-treated control. (C) HUVECs were treated with Compound 12, at the indicated concentrations, in the presence of VEGF (20 ng/mL) for 24 h in 1% serum-containing media. […] Cells that migrated through the membrane (8 μm pore size) were stained with hematoxylin and eosin, pictured as shown in upper panel, and counted (graph). *P < 0.05, **P < 0.01 versus VEGF-treated control. […] (F) Compound 12 (0.1 μg and 1 μg dosages) and retinoic acid (RA, positive control) were applied to the ED 4.5 CAM for two days, neovessel formation from the large vessels was observed, and percentages of positive angiogenic eggs (from total eggs tested) were calculated. […]

[4] = read-out: IC50 of HIF-1α inhibitor

For `COC(=O)c1ccc(O)c(NC(=O)COc2ccc(C34CC5CC(CC(C5)C3)C4)cc2)c1` [LW6], the IC50 (HIF-1α; [4]) is listed as 2500 to 3000 nM.

In the case of `CC1(C)C=Cc2c(ccc(C(=O)/C=C/c3cccs3)c2O)O1` [SYP-5], the IC50 (HIF-1α; [4]) is listed as 10000 nM.

For `OCc1ccc(-c2nn(Cc3ccccc3)c3ccccc23)o1` [YC-1, 3-(5′-hydroxymethyl-2′-furyl)-1-benzyl indazole], the IC50 (HIF-1α; [4]) is given as 2000 to 50000 nM.

For `CC(C)C[C@H](NC(=O)[C@H](Cc1ccccc1)NC(=O)c1cnccn1)B(O)O` [bortezomib], the “concentrations inhibiting p300-HIF-1α binding / HIF-1α” value (HIF-1α; prostate cancer cells) is listed as 0.6 to 30 nM.

For `CS[C@H]1SC[C@H]2C(=O)N(C)[C@@H](C(C)C)C(=O)OC[C@@H](NC(=O)c3cnc4ccccc4n3)C(=O)N[C@@H](C)C(=O)N(C)[C@@H]1C(=O)N(C)[C@@H](C(C)C)C(=O)OC[C@@H](NC(=O)c1cnc3ccccc3n1)C(=O)N[C@@H](C)C(=O)N2C` [echinomycin], the IC50 (HIF-1α; reference not given, read-out: inhibitory concentration of HIF-1α inhibitor) is given as 1.2 nM.

For `COc1cc2ncnc(Nc3ccc(F)c(Cl)c3)c2cc1OCCCN1CCOCC1` [gefitinib, reference compound], the “levels of PIMO and CA9 in tumors, single agent” value ([1]; LLC allograft tumor sections) was “significantly diminished”, the “microvessel density (MSD), CD31, single agent” value ([1]; LLC allograft tumor sections) was “significantly decreased MSD” and the “cells expressing Ki-67 protein in tumors” value ([1]; LLC allograft tumor sections, single agent) was “significantly decreased”. For the same compound, the “tumor growth, single agent” value ([1]; LLC allograft, C57BL/6J mice, i.p., Compound 12 5 mg/kg, gefitinib 50 mg/kg) was “inhibited tumor growth significantly” and the “anti-angiogenic activity, Matrigel plug (hemoglobin content)” value [2] was “anti-angiogenic activity was increased”.

With `CC1=C(/C=C/C(C)=C/C=C/C(C)=C/C(=O)O)C(C)(C)CCC1` [retinoic acid, reference compound] the CAM angiogenesis [3] was “significantly suppressed CAM angiogenesis”.
